Results reported in patent US20250019387A1 (Frontier Medicines Corporation, priority 0001, published 2025).

The compounds below were run against KRAS G12C and cRAF (Ras-binding domain) interaction (Homo sapiens (Human), UniProt P01116, C118S/C51S/C80L/G12C) (assay: Inhibition of KRAS G12C and cRAF binding (AlphaScreen)). Conditions: GMPPNP-loaded KRAS G12C, 19-20 hours incubation with compound; read-out: IC50 (Inhibition of KRAS G12C and cRAF Binding).
Method in brief: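 IC50 values come from 4-parameter nonlinear regression of AlphaScreen signal (680 nm excitation, 570 nm emission). Compound plates sat 19-20 h at room temperature before RBD and donor/acceptor beads were added in Hepes pH 7.4 buffer with 150 mM NaCl, 5 mM MgCl2, 2% DMSO for 60-90 min; biotin-AviTag-GST replaced RBD to flag assay-technology interferers.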

KRAS G12C and cRAF (Ras-binding domain) interaction, sequence (P01116 other isoform, or with tags, fused parts or gaps G12C/C51S/C80L/C118S): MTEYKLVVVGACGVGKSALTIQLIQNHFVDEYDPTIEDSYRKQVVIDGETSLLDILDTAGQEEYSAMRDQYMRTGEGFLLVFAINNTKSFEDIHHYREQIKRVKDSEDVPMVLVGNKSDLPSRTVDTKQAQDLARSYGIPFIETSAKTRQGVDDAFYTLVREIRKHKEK

SMILES	IC50
CN(CC1CN(C(=O)/C=C/c2nc(C(C)(C)O)no2)C1)c1nc(OCC23CCCN2CCC3)nc2c(F)c(-c3cccc4ccc(F)c(Cl)c34)ncc12 [Example 229, (E)-1-(3-(((7-(8-chloro-7-fluoronaphthalen-1-yl)-8-fluoro-2-((tetrahydro-1H-pyrrolizin-7a(5H)-yl)methoxy)pyrido[4,3-d]pyrimidin-4-yl)(methyl)amino)methyl)azetidin-1-yl)-3-(3-(2-hydroxypropan-2-yl)-1,2,4-oxadiazol-5-yl)prop-2-en-1-one]	< 10 nM
CN(c1nc(OC[C@@]23CCCN2C[C@H](F)C3)nc2c(F)c(-c3cccc4cccc(Cl)c34)ncc12)[C@@H]1CCN(C(=O)/C=C/c2nc(C(C)(C)O)no2)C1 [Example 107, (E)-1-((R)-3-((7-(8-chloronaphthalen-1-yl)-8-fluoro-2-(((2R,7aS)-2-fluorotetrahydro-1H-pyrrolizin-7a(5H)-yl)methoxy)pyrido[4,3-d]pyrimidin-4-yl)(methyl)amino)pyrrolidin-1-yl)-3-(3-(2-hydroxypropan-2-yl)-1,2,4-oxadiazol-5-yl)prop-2-en-1-one]	< 10 nM
Cc1cc(/C=C/C(=O)N2CC(CN(C)c3nc(OC[C@@]45CCCN4C[C@H](F)C5)nc4c(F)c(-c5cccc6cccc(Cl)c56)ncc34)C2)nc(C)n1 [Example 275, (E)-1-(3-(((7-(8-chloronaphthalen-1-yl)-8-fluoro-2-(((2R,7aS)-2-fluorohexahydro-1H-pyrrolizin-7a-yl)methoxy)pyrido[4,3-d]pyrimidin-4-yl)(methyl)amino)methyl)azetidin-1-yl)-3-(2,6-dimethylpyrimidin-4-yl)prop-2-en-1-one]	100 to 500 nM
C#Cc1c(F)ccc2cccc(-c3ncc4c(N(C)CC5CN(C(=O)/C=C/c6cc(C)nc(C)n6)C5)nc(OC[C@@]56CCCN5C[C@H](F)C6)nc4c3F)c12 [Example 280, (E)-3-(2,6-dimethylpyrimidin-4-yl)-1-(3-(((7-(8-ethynyl-7-fluoronaphthalen-1-yl)-8-fluoro-2-(((2R,7aS)-2-fluorotetrahydro-1H-pyrrolizin-7a(5H)-yl)methoxy)pyrido[4,3-d]pyrimidin-4-yl)(methyl)amino)methyl)azetidin-1-yl)prop-2-en-1-one]	10 to 100 nM
C=CC(=O)[C@@H]1[C@@H]2CN(c3nc(OC[C@@H]4CCCN4C)nc4c3CCN(c3cccc5cccc(Cl)c35)C4)C[C@@H]21 [Example 45, 1-((1R,5S,6R)-3-(7-(8-chloronaphthalen-1-yl)-2-(((S)-1-methylpyrrolidin-2-yl)methoxy)-5,6,7,8-tetrahydropyrido[3,4-d]pyrimidin-4-yl)-3-azabicyclo[3.1.0]hexan-6-yl)prop-2-en-1-one]	10 to 100 nM
Cc1nccc(/C=C/C(=O)N2CCC[C@@H](N(C)c3nc(OC[C@@]45CCCN4C[C@H](F)C5)nc4c(F)c(-c5cccc6cccc(Cl)c56)ncc34)C2)n1 [Example 198, (E)-1-((R)-3-((7-(8-chloronaphthalen-1-yl)-8-fluoro-2-(((2R,7aS)-2-fluorotetrahydro-1H-pyrrolizin-7a(5H)-yl)methoxy)pyrido[4,3-d]pyrimidin-4-yl)(methyl)amino)piperidin-1-yl)-3-(2-methylpyrimidin-4-yl)prop-2-en-1-one]	> 500 nM
C#Cc1c(F)ccc2cccc(-c3ncc4c(N(C)[C@@H]5CCN(C(=O)/C=C/CN6C[C@H]7C[C@@H]6CO7)C5)nc(OC[C@@]56CCCN5C[C@H](F)C6)nc4c3F)c12 [Example 290, (E)-4-((1R,4R)-2-oxa-5-azabicyclo[2.2.1]heptan-5-yl)-1-((R)-3-((7-(8-ethynyl-7-fluoronaphthalen-1-yl)-8-fluoro-2-(((2R,7aS)-2-fluorotetrahydro-1H-pyrrolizin-7a(5H)-yl)methoxy)pyrido[4,3-d]pyrimidin-4-yl)(methyl)amino)pyrrolidin-1-yl)but-2-en-1-one]	< 10 nM
CN(CC1CN(C(=O)/C=C/c2ccncn2)C1)c1nc(OC[C@@]23CCCN2C[C@H](F)C3)nc2c1CCN(c1cccc3cccc(Cl)c13)C2 [Example 70, (E)-1-(3-(((7-(8-chloronaphthalen-1-yl)-2-(((2R,7aS)-2-fluorohexahydro-1H-pyrrolizin-7a-yl)methoxy)-5,6,7,8-tetrahydropyrido[3,4-d]pyrimidin-4-yl)(methyl)amino)methyl)azetidin-1-yl)-3-(pyrimidin-4-yl)prop-2-en-1-one]	10 to 100 nM
C=CC(=O)N1C[C@@H](F)[C@H](N(C)c2nc(OCC34CCCN3CCC4)nc3c(F)c(-c4cccc5ccc(F)c(Cl)c45)ncc23)C1 [Example 184, 1-((3R,4R)-3-((7-(8-chloro-7-fluoronaphthalen-1-yl)-8-fluoro-2-((hexahydro-1H-pyrrolizin-7a-yl)methoxy)pyrido[4,3-d]pyrimidin-4-yl)(methyl)amino)-4-fluoropyrrolidin-1-yl)prop-2-en-1-one]	10 to 100 nM

Second part, the compound after the results:

IC50	SMILES
> 500 nM	COC(=O)/C=C\C(=O)N1CCC(N(C)c2nc(OC[C@@H]3CCCN3C)nc3c2CCN(c2cccc4cccc(Cl)c24)C3)C1 (stereo partly drawn) [Example 7, methyl (Z)-4-(3-((7-(8-chloronaphthalen-1-yl)-2-(((S)-1-methylpyrrolidin-2-yl)methoxy)-5,6,7,8-tetrahydropyrido[3,4-d]pyrimidin-4-yl)(methyl)amino)pyrrolidin-1-yl)-4-oxobut-2-enoate]
< 10 nM	C=CS(=O)(=O)CCN(C)c1nc(OCC23CCCN2CCC3)nc2c1CCN(c1cccc3cccc(Cl)c13)C2 [Example 49, 7-(8-chloronaphthalen-1-yl)-2-((hexahydro-1H-pyrrolizin-7a-yl)methoxy)-N-methyl-N-(2-(vinylsulfonyl)ethyl)-5,6,7,8-tetrahydropyrido[3,4-d]pyrimidin-4-amine]
10 to 100 nM	CN(c1nc(OC[C@@]23CCCN2C[C@H](F)C3)nc2c(F)c(-c3cccc4ccc(F)c(Cl)c34)ncc12)[C@@H]1CCN(C(=O)/C=C/C2CCN2)C1 (stereo partly drawn) [Example 103, (E)-3-(azetidin-2-yl)-1-((R)-3-((7-(8-chloro-7-fluoronaphthalen-1-yl)-8-fluoro-2-(((2R,7aS)-2-fluorotetrahydro-1H-pyrrolizin-7a(5H)-yl)methoxy)pyrido[4,3-d]pyrimidin-4-yl)(methyl)amino)pyrrolidin-1-yl)prop-2-en-1-one]
100 to 500 nM	C=CC(=O)N1CC[C@@H](N(C)c2nc(OC[C@@]34CCCN3C[C@H](F)C4)nc3c(F)c(-c4cccc5ccc(F)c(CC)c45)ncc23)C1 [Example 185, 1-((R)-3-((7-(8-ethyl-7-fluoronaphthalen-1-yl)-8-fluoro-2-(((2R,7aS)-2-fluorotetrahydro-1H-pyrrolizin-7a(5H)-yl)methoxy)pyrido[4,3-d]pyrimidin-4-yl)(methyl)amino)pyrrolidin-1-yl)prop-2-en-1-one]

Same assay, conditions: additional exemplary compounds; KRAS G12C and cRAF binding; read-out: RAF1 RBD IC50

IC50	SMILES
> 500 nM	Cc1nccc(/C=C/C(=O)N2C[C@@H](F)[C@H](N(C)c3nc(OC[C@@]45CCCN4C[C@H](F)C5)nc4c(F)c(-c5cccc6cccc(Cl)c56)ncc34)C2)n1
> 500 nM	C=CC(=O)N1CCC(N(c2nc(OCC34CCCN3CCC4)nc3c2CCN(c2cccc4cccc(Cl)c24)C3)C2CC2)C1 (stereo not shown)
10 to 100 nM	C=CS(=O)(=O)C1CCCN(c2nc(OCC34CCCN3CCC4)nc3c2CCN(c2cccc4cccc(Cl)c24)C3)C1 (stereo not shown)
